Source: the RepoRT retention time repository

Assay: HILIC, Waters Atlantis Premier BEH Z-HILIC, 100 × 2.1 mm, 1.7 µm, 40 °C, 0.15 mL/min, estimated dead time 1.5 min; A: water + 20 mM ammonium carbonate + 5 µM medronic acid; B: 10% water + 90% acetonitrile + 2 mM ammonium carbonate + 0.5 µM medronic acid; gradient (min/%B) 0/100 18/55 18.1/20 21.5/20 22/100 23.5/100 25.5/100
Conditions: stereoisomer not certain

SMILES | LC retention time
O=C(O)CCC(=O)C(=O)O [2-Oxoglutaric acid] | 8.62 min
O=C(O)CCC(O)C(=O)O (stereo not given) [2-hydroxy glutaric acid] | 9.58 min
Nc1ncnc2c1ncn2C1OC(COP(=O)(O)OP(=O)(O)O)C(O)C1O (stereo not given) [ADP] | 11.9 min
Nc1ncnc2c1ncn2C1OC(COP(=O)(O)O)C(O)C1O (stereo not given) [AMP] | 8.82 min
Nc1ncnc2c1ncn2C1OC(COP(=O)(O)OP(=O)(O)OP(=O)(O)O)C(O)C1O (stereo not given) [ATP] | 14.3 min
CC(=O)SCCNC(=O)CCNC(=O)C(O)C(C)(C)COP(=O)(O)OP(=O)(O)OCC1OC(n2cnc3c(N)ncnc32)C(O)C1OP(=O)(O)O (stereo not given) [Acetyl-CoA] | 9.49 min
Nc1ncnc2c1ncn2C1OC(CO)C(O)C1O (stereo not given) [Adenosine] | 3.65 min
O=C(O)CCCCC1SCC2NC(=O)NC21 (stereo not given) [Biotin] | 4.6 min
C[N+](C)(C)CC(O)CC(=O)[O-] (stereo not given) [Carnitine] | 9.95 min
O=C(O)CC(O)(CC(=O)O)C(=O)O [Citric acid] | 14.7 min
CC(C)(COP(=O)(O)OP(=O)(O)OCC1OC(n2cnc3c(N)ncnc32)C(O)C1OP(=O)(O)O)C(O)C(=O)NCCC(=O)NCCS (stereo not given) [CoenzymeA] | 11.9 min
Cc1cc2nc3c(=O)[nH]c(=O)nc-3n(CC(O)C(O)C(O)COP(=O)(O)OP(=O)(O)OCC3OC(n4cnc5c(N)ncnc54)C(O)C3O)c2cc1C (stereo not given) [FAD] | 7.27 min
O=C(CO)C(O)C(O)C(O)COP(=O)(O)O (stereo not given) [Fructose 6-phosphate] | 12 min
O=P(O)(O)OCC1OC(O)(COP(=O)(O)O)C(O)C1O (stereo not given) [Fructose-1,6-bisphosphate] | 16.6 min
Nc1nc2c(ncn2C2OC(COP(=O)(O)OP(=O)(O)OP(=O)(O)O)C(O)C2O)c(=O)[nH]1 (stereo not given) [GTP] | 17.1 min
O=P(O)(O)OCC1OC(O)C(O)C(O)C1O (stereo not given) [Glucose-6-phosphate] | 12.6 min
NC(CCC(=O)O)C(=O)O (stereo not given) [Glutamic acid] | 9.29 min
NC(=O)CCC(N)C(=O)O (stereo not given) [Glutamine] | 10.4 min

Now from value to compound:

LC retention time | SMILES
9.84 min | O=P(O)(O)OCC(O)CO (stereo not given) [Glycerol-3-phosphate]
6.94 min | OCC1OC(O)C(O)C(O)C1O (stereo not given) [Hexose]
14.5 min | O=C(O)CC(C(=O)O)C(O)C(=O)O (stereo not given) [Isocitric acid]
6.3 min | CCC(C)C(N)C(=O)O (stereo not given) [Isoleucine]
3.36 min | CC(O)C(=O)O (stereo not given) [Lactic Acid]
6.08 min | CC(C)CC(N)C(=O)O (stereo not given) [Leucine]
7.99 min | NC(=O)C1=CN(C2OC(COP(=O)(O)OP(=O)(O)OCC3OC(n4cnc5c(N)ncnc54)C(O)C3O)C(O)C2O)C=CC1 (stereo not given) [NADH]
14.7 min | NC(=O)C1=CN(C2OC(COP(=O)(O)OP(=O)(O)OCC3OC(n4cnc5c(N)ncnc54)C(OP(=O)(O)O)C3O)C(O)C2O)C=CC1 (stereo not given) [NADPH]
13.8 min | NC(=O)c1ccc[n+](C2OC(COP(=O)(O)OP(=O)(O)OCC3OC(n4cnc5c(N)ncnc54)C(OP(=O)(O)O)C3O)C(O)C2O)c1 (stereo not given) [NADP]
10.5 min | NC(=O)c1ccc[n+](C2OC(COP(=O)(O)OP(=O)(O)OCC3OC(n4cnc5c(N)ncnc54)C(O)C3O)C(O)C2O)c1 (stereo not given) [NAD]
14.4 min | C=C(OP(=O)(O)O)C(=O)O [PEP]
13.3 min | O=C(O)C(CO)OP(=O)(O)O (stereo not given) [Phosphoglyceric acid A]
9.39 min | O=C(O)CCC(=O)O [Succinic Acid]
9.84 min | O=C(CO)COP(=O)(O)O [Triose phosphate]
9.63 min | CC(=O)NC1C(OP(=O)(O)OP(=O)(O)OCC2OC(n3ccc(=O)[nH]c3=O)C(O)C2O)OC(CO)C(O)C1O (stereo not given) [UDP-GlcNAc]
6.33 min | CCC(=O)OC(CC(=O)[O-])C[N+](C)(C)C (stereo not given) [carnitine-C3]
4.02 min | O=C1CC(C(=O)O)NC(=O)N1 (stereo not given) [dihydroorotic acid]
